Several values for one entry are separate records, joined by “and”; a condition that tells them apart may be missing. Identical values can stand only once.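 GI50 = concentration required for 50% inhibition of growth. Definition used: TGI = concentration required for complete inhibition of growth.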
Legend:
Test in all cases: growth of human tumour cells (NCI), 384-well format
T-47D breast = system: T-47D breast
MDA-MB-435 melanoma = system: MDA-MB-435 melanoma
SNB-19 CNS = system: SNB-19 CNS
MOLT-4 leukemia = system: MOLT-4 leukemia
CCRF-CEM leukemia = system: CCRF-CEM leukemia
HT29 colon = system: HT29 colon
SK-MEL-28 melanoma = system: SK-MEL-28 melanoma
NCI-H522 lung = system: NCI-H522 lung
EKVX NSCLC = system: EKVX NSCLC
HCC-2998 colon = system: HCC-2998 colon
U251 glioblastoma = system: U251 glioblastoma
UACC-62 melanoma = system: UACC-62 melanoma
TK-10 renal = system: TK-10 renal
CAKI-1 renal = system: CAKI-1 renal
NCI-H460 NSCLC = system: NCI-H460 NSCLC
SK-OV-3 ovarian = system: SK-OV-3 ovarian
MCF7 breast = system: MCF7 breast
BT-549 breast = system: BT-549 breast
NCI-H322M lung = system: NCI-H322M lung
OVCAR-5 ovarian = system: OVCAR-5 ovarian
LOX IMVI melanoma = system: LOX IMVI melanoma
SK-MEL-5 melanoma = system: SK-MEL-5 melanoma
MDA-MB-468 breast = system: MDA-MB-468 breast
UO-31 renal = system: UO-31 renal
M14 melanoma = system: M14 melanoma
NCI/ADR-RES ovarian = system: NCI/ADR-RES ovarian
HS 578T breast = system: HS 578T breast
MALME-3M melanoma = system: MALME-3M melanoma
COLO 205 colon = system: COLO 205 colon
HL-60(TB) leukemia = system: HL-60(TB) leukemia
RXF 393 renal = system: RXF 393 renal
786-0 renal = system: 786-0 renal
OVCAR-8 ovarian = system: OVCAR-8 ovarian
HCT-116 colon = system: HCT-116 colon
SN12C renal = system: SN12C renal
PC-3 prostate = system: PC-3 prostate
RPMI-8226 leukemia = system: RPMI-8226 leukemia
A498 renal = system: A498 renal
OVCAR-3 ovarian = system: OVCAR-3 ovarian
SW-620 colon = system: SW-620 colon
OVCAR-4 ovarian = system: OVCAR-4 ovarian
SF-295 CNS = system: SF-295 CNS
K-562 leukemia = system: K-562 leukemia
MDA-MB-231 breast = system: MDA-MB-231 breast
UACC-257 melanoma = system: UACC-257 melanoma
NCI-H226 lung = system: NCI-H226 lung
NCI-H23 lung = system: NCI-H23 lung
SF-539 CNS = system: SF-539 CNS
A549 NSCLC = system: A549 NSCLC
HCT-15 colon = system: HCT-15 colon
KM12 colon = system: KM12 colon
DU-145 prostate = system: DU-145 prostate
HOP-62 NSCLC = system: HOP-62 NSCLC
SNB-75 CNS = system: SNB-75 CNS
IGROV1 ovarian = system: IGROV1 ovarian
SF-268 CNS = system: SF-268 CNS
HOP-92 NSCLC = system: HOP-92 NSCLC
ACHN renal = system: ACHN renal

CNC(=O)c1ccc(Nc2ncc(C(F)(F)F)c(NCc3nccnc3N(C)S(C)(=O)=O)n2)cc1
GI50 (T-47D breast): 2500 nM and 2670 nM
TGI (T-47D breast): 6900 nM and 7180 nM
GI50 (MDA-MB-435 melanoma): 2880 nM and 4550 nM
TGI (MDA-MB-435 melanoma): 11800 nM and 14400 nM
GI50 (SNB-19 CNS): 3050 nM and 3920 nM
TGI (SNB-19 CNS): 13300 nM and 12400 nM
GI50 (MOLT-4 leukemia): 1950 nM and 2160 nM
TGI (MOLT-4 leukemia): 3580 nM and 3840 nM
GI50 (CCRF-CEM leukemia): 1710 nM and 2100 nM
TGI (CCRF-CEM leukemia): 3280 nM and 3730 nM
GI50 (HT29 colon): 2110 nM and 2250 nM
TGI (HT29 colon): 5190 nM and 5710 nM
GI50 (SK-MEL-28 melanoma): 1780 nM and 2340 nM
TGI (SK-MEL-28 melanoma): 3650 nM and 4720 nM
GI50 (NCI-H522 lung): 1940 nM and 2470 nM
TGI (NCI-H522 lung): 3630 nM and 4420 nM
GI50 (EKVX NSCLC): 1580 nM and 1890 nM
TGI (EKVX NSCLC): 4560 nM and 5270 nM
GI50 (HCC-2998 colon): 1500 nM and 1740 nM
TGI (HCC-2998 colon): 4340 nM and 4680 nM
GI50 (U251 glioblastoma): 2170 nM and 2960 nM
TGI (U251 glioblastoma): 7560 nM and 10200 nM
GI50 (UACC-62 melanoma): 1190 nM and 1400 nM
TGI (UACC-62 melanoma): 2490 nM and 2810 nM
GI50 (TK-10 renal): 1770 nM and 2240 nM
TGI (TK-10 renal): 5220 nM and 6820 nM
GI50 (CAKI-1 renal): 1300 nM and 1480 nM
TGI (CAKI-1 renal): 4510 nM and 4900 nM
GI50 (NCI-H460 NSCLC): 1470 nM and 1670 nM
TGI (NCI-H460 NSCLC): 3130 nM and 3370 nM
GI50 (SK-OV-3 ovarian): 1310 nM and 1770 nM
TGI (SK-OV-3 ovarian): 5300 nM and 9750 nM
GI50 (MCF7 breast): 2210 nM and 1900 nM
TGI (MCF7 breast): 7680 nM and 5850 nM
GI50 (BT-549 breast): 1580 nM and 1990 nM
TGI (BT-549 breast): 3400 nM and 4080 nM
GI50 (NCI-H322M lung): 2040 nM and 2200 nM
TGI (NCI-H322M lung): 5320 nM and 6000 nM
GI50 (OVCAR-5 ovarian): 2140 nM and 2410 nM
TGI (OVCAR-5 ovarian): 6770 nM and 7250 nM
GI50 (LOX IMVI melanoma): 1530 nM and 1650 nM
TGI (LOX IMVI melanoma): 3340 nM and 3520 nM
GI50 (SK-MEL-5 melanoma): 1340 nM and 1250 nM
TGI (SK-MEL-5 melanoma): 2690 nM and 2640 nM
GI50 (MDA-MB-468 breast): 1350 nM and 1790 nM
TGI (MDA-MB-468 breast): 2950 nM and 3710 nM
GI50 (UO-31 renal): 1820 nM and 1980 nM
TGI (UO-31 renal): 4840 nM and 4750 nM
GI50 (M14 melanoma): 1290 nM and 1530 nM
TGI (M14 melanoma): 3780 nM and 4150 nM
GI50 (NCI/ADR-RES ovarian): 13500 nM and 16000 nM
TGI (NCI/ADR-RES ovarian): 40500 nM and 35500 nM
GI50 (HS 578T breast): 1300 nM and 449 nM
TGI (HS 578T breast): 3100 nM and 2420 nM
GI50 (MALME-3M melanoma): 2120 nM and 2650 nM
TGI (MALME-3M melanoma): 4880 nM and 6180 nM
GI50 (COLO 205 colon): 2030 nM and 2410 nM
TGI (COLO 205 colon): 5340 nM and 5980 nM
GI50 (HL-60(TB) leukemia): 1610 nM and 2020 nM
TGI (HL-60(TB) leukemia): 2970 nM and 3470 nM
GI50 (RXF 393 renal): 1150 nM and 1170 nM
TGI (RXF 393 renal): 2710 nM and 2730 nM
GI50 ([…]-0 renal): 2400 nM and 2390 nM
TGI (786-0 renal): 10800 nM and 8970 nM
GI50 (OVCAR-8 ovarian): 2730 nM and 3010 nM
TGI (OVCAR-8 ovarian): 7710 nM and 8760 nM
GI50 (HCT-116 colon): 1750 nM and 1940 nM
TGI (HCT-116 colon): 6220 nM and 4860 nM
GI50 (SN12C renal): 1940 nM and 2360 nM
TGI (SN12C renal): 4120 nM and 4970 nM
GI50 (PC-3 prostate): 2110 nM and 3350 nM
TGI (PC-3 prostate): 6150 nM and 10700 nM
GI50 (RPMI-8226 leukemia): 1810 nM and 2260 nM
TGI (RPMI-8226 leukemia): 3210 nM and 3750 nM
GI50 (A498 renal): 1080 nM and 1350 nM
TGI (A498 renal): 4630 nM and 5830 nM
GI50 (OVCAR-3 ovarian): 1420 nM and 1980 nM
TGI (OVCAR-3 ovarian): 3940 nM and 4840 nM
GI50 (SW-620 colon): 2020 nM and 2460 nM
TGI (SW-620 colon): 4390 nM and 5130 nM
GI50 (OVCAR-4 ovarian): 2310 nM and 3190 nM
TGI (OVCAR-4 ovarian): 10200 nM and 14100 nM
GI50 (SF-295 CNS): 2720 nM and 2750 nM
TGI (SF-295 CNS): 9230 nM and 8160 nM
GI50 (K-562 leukemia): 3450 nM and 3440 nM
TGI (K-562 leukemia): 16800 nM
GI50 (MDA-MB-231 breast): 2380 nM and 3040 nM
TGI (MDA-MB-231 breast): 11700 nM and 14600 nM
GI50 (UACC-257 melanoma): 2060 nM and 2930 nM
TGI (UACC-257 melanoma): 5320 nM and 8360 nM
GI50 (NCI-H226 lung): 2050 nM
TGI (NCI-H226 lung): 11900 nM and 7960 nM
GI50 (NCI-H23 lung): 1590 nM and 1740 nM
TGI (NCI-H23 lung): 3170 nM and 3430 nM
GI50 (SF-539 CNS): 1550 nM and 1950 nM
TGI (SF-539 CNS): 3290 nM and 3850 nM
GI50 (A549 NSCLC): 2350 nM and 2240 nM
TGI (A549 NSCLC): 6470 nM and 6060 nM
GI50 (HCT-15 colon): 1840 nM and 2790 nM
TGI (HCT-15 colon): 5700 nM and 8920 nM
GI50 (KM12 colon): 250 nM and 239 nM
TGI (KM12 colon): 2360 nM and 2860 nM
GI50 (DU-145 prostate): 1710 nM and 2200 nM
TGI (DU-145 prostate): 10700 nM and 11100 nM
GI50 (HOP-62 NSCLC): 2040 nM and 2110 nM
TGI (HOP-62 NSCLC): 6310 nM and 7250 nM
GI50 (SNB-75 CNS): 1280 nM and 1780 nM
TGI (SNB-75 CNS): 3690 nM and 4750 nM
GI50 (IGROV1 ovarian): 558 nM and 673 nM
TGI (IGROV1 ovarian): 5910 nM and 8380 nM
GI50 (SF-268 CNS): 1030 nM and 681 nM
TGI (SF-268 CNS): 2350 nM and 2260 nM
GI50 (HOP-92 NSCLC): 2210 nM and 2540 nM
TGI (HOP-92 NSCLC): 6440 nM and 6500 nM
GI50 (ACHN renal): 1910 nM and 2090 nM
TGI (ACHN renal): 9330 nM and 9550 nM
